In patent publication US11141452B2, “Bifunctional compounds for relief of pain comprising an opioid receptor agonist moiety and a NK1 receptor antagonist moiety and methods for treating pain” (THE ARIZONA BOARD OF REGENTS ON BEHALF OF THE UNIVERSITY OF …, priority 2014, dated 2021):
Several values for one entry are separate records, joined by “and”; a condition that tells them apart may be missing. Equal entries are not always repeated. Where two headings read alike, the source gives them in different places. Non-standard residues stand in square brackets, D forms with d. Residues, ends and D or L forms follow the SMILES beside them. *: point of attachment. NH(3,5-(CF3)2-benzyl) = FC(F)(F)c1cc(CN*)cc(C(F)(F)F)c1; NMeF = CN[C@@H](Cc1ccccc1)C(=O)O

Legend:
[1] = target: T1, DOR (Mus musculus, UniProt P32300); test: Mouse isolated vas deferens (MVD) functional assay; assay type: cell-based
T1 construct: Male ICR mice under CO2 anesthesia were sacrificed by cervical dislocation and the vasa differentia removed; from tissue; host or cells: mouse vas deferens (ICR mice)
T1 sequence (P32300 whole entry): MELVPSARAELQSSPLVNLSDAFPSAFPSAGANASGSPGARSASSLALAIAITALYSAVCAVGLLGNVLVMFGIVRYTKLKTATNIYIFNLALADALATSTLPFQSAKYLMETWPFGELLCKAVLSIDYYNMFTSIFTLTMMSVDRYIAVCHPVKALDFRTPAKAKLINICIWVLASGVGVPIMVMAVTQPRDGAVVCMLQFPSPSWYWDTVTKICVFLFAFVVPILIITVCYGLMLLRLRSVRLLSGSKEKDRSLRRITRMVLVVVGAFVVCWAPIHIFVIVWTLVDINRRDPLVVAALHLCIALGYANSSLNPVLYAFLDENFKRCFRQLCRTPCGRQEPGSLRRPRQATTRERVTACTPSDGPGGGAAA

[2] = target: MOR; test: Radioligand binding assay at μ opioid receptor; conditions: for Log[IC50±] (μ): log IC50 ± error; for Ki^μ/Ki^δ: ratio of binding affinities MOR/DOR
Experimental: (§1) Binding affinities of these ligands were measured on radioligand binding assays. […] ([43]).

[3] = system: MOR; test: Guinea pig isolated ileum (GPI) functional assay; assay type: cell-based
[4] = target: T2, NK1R (Cavia porcellus, UniProt P30547); test: GPI/LMMP functional assay at NK1R (agonist and antagonist testing); assay type: cell-based, guinea pig; conditions: for GPI/LMMP (NK1R) Agonist: agonist activity at the concentration in the cell
T2 construct: The longitudinal muscle with myenteric plexus (LMMP) was carefully separated from the circular muscle; from tissue; host or cells: guinea pig ileum longitudinal muscle with myenteric plexus
T2 sequence (P30547 whole entry): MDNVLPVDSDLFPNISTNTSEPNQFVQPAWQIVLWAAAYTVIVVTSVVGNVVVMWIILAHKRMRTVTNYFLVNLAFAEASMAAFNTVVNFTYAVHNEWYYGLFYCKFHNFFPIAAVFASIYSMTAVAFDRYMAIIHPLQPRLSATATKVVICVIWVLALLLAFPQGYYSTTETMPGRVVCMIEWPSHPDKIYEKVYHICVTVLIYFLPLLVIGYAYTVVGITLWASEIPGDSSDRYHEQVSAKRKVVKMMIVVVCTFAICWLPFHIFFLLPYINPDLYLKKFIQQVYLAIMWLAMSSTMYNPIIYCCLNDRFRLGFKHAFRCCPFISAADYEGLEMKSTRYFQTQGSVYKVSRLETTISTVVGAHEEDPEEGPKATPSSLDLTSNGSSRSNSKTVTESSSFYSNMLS

[5] = target: DOR (Homo sapiens, UniProt P41143); test: Radioligand binding assay at δ opioid receptor; conditions: for Ki: Ki^δ (nM)
Sequence of DOR (Homo sapiens, UniProt P41143) (P41143 whole entry): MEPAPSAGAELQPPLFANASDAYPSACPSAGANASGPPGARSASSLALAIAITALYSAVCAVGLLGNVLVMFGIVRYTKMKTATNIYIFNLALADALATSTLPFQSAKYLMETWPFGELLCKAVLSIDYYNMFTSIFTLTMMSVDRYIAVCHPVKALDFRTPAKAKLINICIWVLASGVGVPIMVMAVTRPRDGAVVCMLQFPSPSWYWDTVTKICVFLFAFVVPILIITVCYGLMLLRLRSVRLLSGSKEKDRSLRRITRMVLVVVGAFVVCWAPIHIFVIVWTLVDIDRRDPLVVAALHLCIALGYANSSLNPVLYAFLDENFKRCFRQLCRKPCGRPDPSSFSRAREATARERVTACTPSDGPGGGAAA
Experimental: as §1

[6] = target: T3, hNK1 (Homo sapiens, UniProt P25103); test: hNK1/CHO cell membrane radioligand binding assay ([3H]SP); conditions: for Ki^hNK1/Ki^rNK1: ratio human/rat NK1; for Ki: Ki^hNK1 (nM), hNK1/CHO membranes, [3H]SP
T3 construct: expressed in transfected cells; host or cells: CHO
T3 sequence (P25103 whole entry): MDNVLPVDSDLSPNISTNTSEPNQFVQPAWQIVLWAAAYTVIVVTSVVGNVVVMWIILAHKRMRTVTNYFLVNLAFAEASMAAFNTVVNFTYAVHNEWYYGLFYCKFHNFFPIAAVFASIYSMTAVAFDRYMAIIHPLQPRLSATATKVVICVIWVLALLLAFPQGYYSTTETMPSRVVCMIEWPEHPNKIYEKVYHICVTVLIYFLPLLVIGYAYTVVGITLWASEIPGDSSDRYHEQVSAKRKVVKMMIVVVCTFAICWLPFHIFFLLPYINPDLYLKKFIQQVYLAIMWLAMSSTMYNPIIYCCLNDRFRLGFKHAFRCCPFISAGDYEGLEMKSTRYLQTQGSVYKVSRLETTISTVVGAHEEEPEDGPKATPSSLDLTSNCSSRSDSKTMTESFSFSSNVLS

[7] = MVD (DOR) IC50 (nM), agonist activity, electrically stimulated tissue
[8] = agonist activity, electrically stimulated tissue, read-out: GPI (MOR) IC50
[9] = antagonist activity, read-out: GPI/LMMP (NK1R) Ke (nM) ± S.E.M.
[10] = GPI/LMMP (NK1R) Ke (nM) ± S.E.M., antagonist activity

Row | SMILES | IC50 [1, 7] [nM] | Log[IC50±] (μ) [2] | IC50 [3, 8] | Kb [4] [nM] | GPI/LMMP (NK1R) Agonist [4] | IC50 [5] [nM] | IC50 [1] [nM] | Ki [2] [nM] | GPI/MVD IC50 ratio [3] | Ki^hNK1/Ki^rNK1 [6] | Kb [4, 9] | higher agonist activity at DOR compared to MOR (functional assays) [1] [times] | Kb [4, 10] | binding selectivity for MOR over DOR [2] [times] | Ki^μ/Ki^δ [2] | IC50 ([3]; head of Table IX, read-out: GPI (MOR) ID50) [nM] | Ki [6] [nM] | Ki [5] [nM]
1 | CC(C)C[C@H](NC(=O)[C@@H]1CCCN1C(=O)[C@H](Cc1ccccc1)N(C)C(=O)CNC(=O)[C@@H](C)NC(=O)[C@@H](N)Cc1ccc(O)cc1)C(=O)N[C@@H](Cc1c[nH]c2ccccc12)C(=O)NCc1cc(C(F)(F)F)cc(C(F)(F)F)c1 [AKG117, H-Tyr-D-Ala-Gly-NMePhe-Pro-Leu-Trp-NH-Bn(3′,5′-(CF3)2)] | 100 | −7.05 ± 0.04 | 230 nM and 232 nM |  |  |  |  |  |  |  |  |  |  |  |  |  |  | 
2 | CC(C)C[C@H](NC(=O)[C@@H]1CCCN1C(=O)CCCCCNC(=O)[C@H](Cc1ccccc1)N(C)C(=O)CNC(=O)[C@@H](C)NC(=O)[C@@H](N)Cc1ccc(O)cc1)C(=O)N[C@@H](Cc1c[nH]c2ccccc12)C(=O)NCc1cc(C(F)(F)F)cc(C(F)(F)F)c1 [AKG124, H-Tyr-D-Ala-Gly-NMePhe-[4]6-Ahx-Pro-Leu-Trp-NH-Bn(3′,5′-(CF3)2)] |  | −7.80 ± 0.09 | 255 ± 71.2 nM | 11.2 ± 3.1 | None at 100 nM | 72.4 | 36.8 ± 13.6 | 7 | 7/1 | 1/36 |  |  |  |  |  |  |  | 
3 | CC(C)C[C@H](NC(=O)[C@@H]1CCCN1C(=O)Cc1ccc(CNC(=O)[C@H](Cc2ccccc2)N(C)C(=O)CNC(=O)[C@@H](C)NC(=O)[C@@H](N)Cc2ccc(O)cc2)cc1)C(=O)N[C@@H](Cc1c[nH]c2ccccc12)C(=O)NCc1cc(C(F)(F)F)cc(C(F)(F)F)c1 [AKG178, H-Tyr-D-Ala-Gly-NMePhe-4-Ampa-Pro-Leu-Trp-NH-Bn(3′,5′-(CF3)2)] |  |  | 650 nM and 654 nM |  | None at 300 nM |  |  |  | 15/1 | 1/21 | 76 nM | 15 |  |  |  |  |  | 
4 | CC(C)C[C@H](NC(=O)[C@@H]1CCCN1C(=O)[C@H](CO)NC(=O)[C@H](Cc1ccccc1)N(C)C(=O)CNC(=O)[C@@H](C)NC(=O)[C@@H](N)Cc1ccc(O)cc1)C(=O)N[C@@H](Cc1c[nH]c2ccccc12)C(=O)NCc1cc(C(F)(F)F)cc(C(F)(F)F)c1 [AKG126] (H-Y[dA]G[NMeF]SPLW-{NH(3,5-(CF3)2-benzyl)}) | 25.9 ± 6.69 | −8.30 ± 0.11 | 240 nM |  | None at 30 nM | 148 |  | 2 | 9/1 | 1/37 |  | 9 | 17 nM and 16.5 nM | 31 | 1/31 | 237 ± 29.2 | 1 | 
5 | Cc1cc(O)cc(C)c1C[C@H](N)C(=O)N[C@H](C)C(=O)NCC(=O)N[C@@H](Cc1ccccc1)C(=O)N1CCC[C@H]1C(=O)N[C@@H](CC(C)C)C(=O)N[C@@H](Cc1c[nH]c2ccccc12)C(=O)NCc1cc(C(F)(F)F)cc(C(F)(F)F)c1 [AKG116, H-Dmt-D-Ala-Gly-Phe-Pro-Leu-Trp-NH-Bn(3′,5′-(CF3)2)] | 3.1 | −8.63 ± 0.04 | 80.8 nM |  | None at 100 nM | 2.19 |  | 3 | 26/1 | 1/19 | 25 nM and 24.9 nM | 26 |  |  | 3/1 |  | 1.4 | 1
6 | CC(C)C[C@H](NC(=O)[C@@H]1CCCN1C(=O)Cc1ccc(NC(=O)[C@H](Cc2ccccc2)N(C)C(=O)CNC(=O)[C@@H](C)NC(=O)[C@@H](N)Cc2ccc(O)cc2)cc1)C(=O)N[C@@H](Cc1c[nH]c2ccccc12)C(=O)NCc1cc(C(F)(F)F)cc(C(F)(F)F)c1 [AKG177, H-Tyr-D-Ala-Gly-NMePhe-4-Apac-Pro-Leu-Trp-NH-Bn(3′,5′-(CF3)2)] |  | −8.68 ± 0.19 | 41 nM and 40.8 nM | 39.2 ± 7.9 | None at 100 nM | 148 | 35 ± 7.89 | 1 | 1/1 | 1/14 |  |  |  |  | 1/70 |  |  | 70
7 | CCCC[C@H](NC(=O)[C@H](Cc1ccccc1)N(C)C(=O)CNC(=O)[C@@H](C)NC(=O)[C@@H](N)Cc1ccc(O)cc1)C(=O)N1CCC[C@H]1C(=O)N[C@@H](CC(C)C)C(=O)N[C@@H](Cc1c[nH]c2ccccc12)C(=O)NCc1cc(C(F)(F)F)cc(C(F)(F)F)c1 [AKG112, H-Tyr-D-Ala-Gly-NMePhe-Nle-Pro-Leu-Trp-NH-Bn(3′,5′-(CF3)2)] | 11.6 ± 2.55 | −7.51 ± 0.04 | 718 nM |  |  | 50.1 |  | 13 |  |  |  |  | 5.4 ± 2.1 nM |  |  |  |  | 
8 | CC(C)C[C@H](NC(=O)[C@@H]1CCCN1C(=O)CCCNC(=O)[C@H](Cc1ccccc1)N(C)C(=O)CNC(=O)[C@@H](C)NC(=O)[C@@H](N)Cc1ccc(O)cc1)C(=O)N[C@@H](Cc1c[nH]c2ccccc12)C(=O)NCc1cc(C(F)(F)F)cc(C(F)(F)F)c1 [AKG123, H-Tyr-D-Ala-Gly-NMePhe-γ-Abu-Pro-Leu-Trp-NH-Bn(3′,5′-(CF3)2)] |  | −7.73 ± 0.07 | 424 ± 148 nM | 2.3 ± 0.7 |  | 5.89 | 50.1 ± 17.4 | 9 |  |  |  |  |  |  |  |  |  | 3
9 | CC(C)C[C@H](NC(=O)[C@@H]1CCCN1C(=O)[C@H](Cc1ccc(O)cc1)NC(=O)CNC(=O)[C@H](Cc1ccccc1)NC(=O)[C@@H](C)NC(=O)[C@@H](N)Cc1ccc(O)cc1)C(=O)N[C@@H](Cc1c[nH]c2ccccc12)C(=O)NCc1cc(C(F)(F)F)cc(C(F)(F)F)c1 [AKG114] (H-Y[dA]FGYPLW-{NH(3,5-(CF3)2-benzyl)}) |  | −8.02 ± 0.04 | 110 nM and 112 nM |  |  |  |  | 4 |  |  | 15 nM | 4 |  |  |  |  |  | 
10 | CC(C)C[C@H](NC(=O)[C@@H]1CCCN1C(=O)CCNC(=O)[C@H](Cc1ccccc1)N(C)C(=O)CNC(=O)[C@@H](C)NC(=O)[C@@H](N)Cc1ccc(O)cc1)C(=O)N[C@@H](Cc1c[nH]c2ccccc12)C(=O)NCc1cc(C(F)(F)F)cc(C(F)(F)F)c1 [AKG119, H-Tyr-D-Ala-Gly-NMePhe-β-Ala-Pro-Leu-Trp-NH-Bn(3′,5′-(CF3)2)] |  | −7.76 ± 0.11 | 365 ± 186 nM |  | None at 100 nM |  |  | 8 | 10/1 | 1/32 |  |  |  |  |  |  |  | 
11 | Cc1cc(O)cc(C)c1C[C@H](N)C(=O)N[C@H](C)C(=O)NCC(=O)N[C@@H](Cc1ccc(Cl)cc1)C(=O)N1CCC[C@H]1C(=O)N[C@@H](CC(C)C)C(=O)N[C@@H](Cc1c[nH]c2ccccc12)C(=O)NCc1cc(C(F)(F)F)cc(C(F)(F)F)c1 [AKG191, H-Dmt-D-Ala-Gly-Phe(4-Cl)-Pro-Leu-Trp-NH-Bn(3′,5′-(CF3)2)] | 25.4 ± 7.7 | −8.33 ± 0.09 | 166 ± 71.6 nM |  | None at 300 nM |  |  | 2 |  | 1/9 |  |  |  |  |  |  |  | 
12 | Cc1cc(O)cc(C)c1C[C@H](N)C(=O)N[C@H](C)C(=O)NCC(=O)N(C)[C@@H](Cc1ccc(F)cc1)C(=O)N1CCC[C@H]1C(=O)N[C@@H](CC(C)C)C(=O)N[C@@H](Cc1c[nH]c2ccccc12)C(=O)NCc1cc(C(F)(F)F)cc(C(F)(F)F)c1 [AKG128, H-Dmt-D-Ala-Gly-NMePhe(4-F)-Pro-Leu-Trp-NH-Bn(3′,5′-(CF3)2)] | 11.5 ± 5.6 | −8.55 ± 0.18 | 76.5 nM |  | None at 30 nM |  |  | 1 |  | 1/13 |  | ~7 | 11.2 ± 2.7 nM |  | 1/4 |  |  | 
